Values after ≈ are worked out from the molar mass of the structure shown.
Key:
Assay type in all cases: cell-based
E. coli strain MP-4 = assay: Broth dilution MIC determination (CLSI) against E. coli strain MP-4; settings: Escherichia coli, MP4
In short: (§1)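 Activity is reported in categories: ≤4 mg/L as "+++", 8 to below 32 mg/L as "++", and 32 mg/L or more as "+". Testing followed CLSI broth dilution procedures.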

[1] = test system: K. pneumoniae strain MP-548; assay: Broth dilution MIC determination (CLSI) against K. pneumoniae strain MP-548; settings: Klebsiella pneumoniae, MP548
In short: as §1

[2] = test system: P. aeruginosa strain MP-3; assay: Broth dilution MIC determination (CLSI) against P. aeruginosa strain MP-3; settings: Pseudomonas aeruginosa, MP3
In short: as §1

[3] = test system: A. baumannii strain MP-15; assay: Broth dilution MIC determination (CLSI) against A. baumannii strain MP-15; settings: Acinetobacter baumannii, MP15
In short: as §1

S. aureus strain MP-12 = assay: Broth dilution MIC determination (CLSI) against S. aureus strain MP-12; settings: Staphylococcus aureus, MP12, strain MP-12
In short: as §1

`CC[C@H]1OC(=O)C(C)C(=O)[C@H](C)[C@@H](O[C@@H]2OC(CNCc3cccc(Oc4cnccn4)c3)CC(N(C)C)C2O)[C@](C)(OC)C[C@@H](C)CN[C@H](C)[C@H]2NC(=O)O[C@@]21C` (stereo partly shown) [Compound 22] gave an MIC (E. coli strain MP-4) of 8 to 32 µg/mL (≈ 9.84 to 39.4 µM), an MIC [1] of no less than 32 µg/mL and an MIC [2] of no less than 32 µg/mL. For the same molecule, the MIC [3] was no less than 32 µg/mL and the MIC (S. aureus strain MP-12) was no less than 32 µg/mL.

`CC[C@H]1OC(=O)C(C)C(=O)[C@H](C)[C@@H](OC2OC(CN(C)CC)CC(N(C)C)C2O)[C@](C)(OC)C[C@@H](C)CN[C@H](C)[C@H]2NC(=O)O[C@@]21C` (stereo partly shown) [Compound 151, 3-Descladinosyl-3-oxo-6-O-methyl-N9a-desmethyl-11,12-dideoxy-12,11-(oxycarbonylimino)-6′-methylethylamino Azithromycin] showed an MIC (E. coli strain MP-4) of no more than 4 µg/mL, an MIC [1] of 8 to 32 µg/mL (≈ 11.9 to 47.7 µM) and an MIC [2] of no less than 32 µg/mL. It also gave an MIC [3] of no less than 32 µg/mL and an MIC (S. aureus strain MP-12) of no less than 32 µg/mL.

`CC[C@H]1OC(=O)[C@@]2(C)CCOC(C)(C[C@@H](C)CN(C3CC3)[C@H](C)[C@H]3NC(=O)O[C@@]31C)[C@H](O[C@@H]1OC(C)CC(N(C)C)C1O)[C@@H](C)C2=O` (stereo partly shown) [Compound 210] gave an MIC (E. coli strain MP-4) of 8 to 32 µg/mL (≈ 12 to 48.1 µM), an MIC [1] of no less than 32 µg/mL and an MIC [2] of no less than 32 µg/mL. It also gave an MIC [3] of no less than 32 µg/mL and an MIC (S. aureus strain MP-12) of no more than 4 µg/mL.

With `CC[C@H]1OC(=O)C(C)C(=O)[C@H](C)[C@@H](O[C@@H]2O[C@H](CN(C)C(=O)CNC)CC(N(C)C)[C@H]2O)[C@](C)(OC)C[C@@H](C)CN[C@H](C)[C@H]2NC(=O)O[C@@]21C` (stereo partly shown) [Compound 173, 3-Descladinosyl-3-oxo-6-O-methyl-N9a-desmethyl-11,12-dideoxy-12,11-(oxycarbonylimino)-6′-N-methyl-2″-methylamino-acetamide Azithromycin] the MIC (E. coli strain MP-4) was no less than 32 µg/mL, the MIC [1] was no less than 32 µg/mL and the MIC [2] was no less than 32 µg/mL. For the same molecule, the MIC [3] was no less than 32 µg/mL and the MIC (S. aureus strain MP-12) was no less than 32 µg/mL.

`CC[C@H]1OC(=O)C(C)C(=O)[C@H](C)[C@@H](O[C@@H]2OC(CNCc3ccc(C(C)(C)C)cc3)CC(N(C)C)C2O)[C@](C)(OC)C[C@@H](C)CN[C@H](C)[C@H]2NC(=O)O[C@@]21C` (stereo partly shown) [Compound 37] showed an MIC (E. coli strain MP-4) of no less than 32 µg/mL, an MIC [1] of no less than 32 µg/mL and an MIC [2] of no less than 32 µg/mL. It also gave an MIC [3] of no less than 32 µg/mL and an MIC (S. aureus strain MP-12) of no less than 32 µg/mL.

`CC[C@H]1OC(=O)[C@]2(C)CCO[C@](C)(C[C@@H](C)CN[C@H](C)[C@H]3NC(=O)O[C@@]31C)[C@H](O[C@@H]1O[C@H](CN3CCCCC3)C[C@H](N(C)C)[C@H]1O)[C@@H](C)C2=O` [Compound 198] was tested, and the MIC (E. coli strain MP-4) was no more than 4 µg/mL, the MIC [1] was 8 to 32 µg/mL (≈ 11.3 to 45.1 µM) and the MIC [2] was no less than 32 µg/mL. For the same molecule, the MIC [3] was no less than 32 µg/mL and the MIC (S. aureus strain MP-12) was 8 to 32 µg/mL (≈ 11.3 to 45.1 µM).

`CC[C@H]1OC(=O)C(C)C(=O)[C@H](C)[C@@H](O[C@@H]2O[C@H](CNC3CC3)CC(N(C)C)[C@H]2O)[C@](C)(OC)C[C@@H](C)CN(C)[C@H](C)[C@H]2NC(=O)O[C@@]21C` (stereo partly shown) [Compound 161, 3-Descladinosyl-3-oxo-6-O-methyl-11,12-dideoxy-12,11-(oxycarbonylimino)-6′-cyclopropylamino Azithromycin] showed an MIC (E. coli strain MP-4) of no more than 4 µg/mL, an MIC [1] of no more than 4 µg/mL and an MIC [2] of no less than 32 µg/mL. For the same molecule, the MIC [3] was 8 to 32 µg/mL (≈ 11.7 to 46.9 µM) and the MIC (S. aureus strain MP-12) was 8 to 32 µg/mL (≈ 11.7 to 46.9 µM).

Molecule `CC[C@H]1OC(=O)C(C)C(=O)[C@H](C)[C@@H](OC2OC(CNC3CC3)CC(N(C)C)C2O)[C@](C)(OC)C[C@@H](C)CN[C@H](C)[C@H]2NC(=O)O[C@@]21C` (stereo partly shown) [Compound 118, 3-Descladinosyl-3-oxo-6-O-methyl-N9a-desmethyl-11,12-dideoxy-12,11-(oxycarbonylimino)-6′-cyclopropylamino Azithromycin] has an MIC (E. coli strain MP-4) of no more than 4 µg/mL, an MIC [1] of no more than 4 µg/mL and an MIC [2] of no less than 32 µg/mL. For the same molecule, the MIC [3] was no less than 32 µg/mL and the MIC (S. aureus strain MP-12) was 8 to 32 µg/mL (≈ 12 to 47.8 µM).

With `CC[C@H]1OC(=O)[C@]2(C)CCO[C@](C)(C[C@@H](C)CN[C@H](C)[C@H]3NC(=O)O[C@@]31C)[C@H](O[C@@H]1O[C@H](CO)C[C@H](N(C)C)[C@H]1O)[C@@H](C)C2=O` [Compound 194] the MIC (E. coli strain MP-4) was no less than 32 µg/mL, the MIC [1] was no less than 32 µg/mL and the MIC [2] was no less than 32 µg/mL. It also gave an MIC [3] of no less than 32 µg/mL and an MIC (S. aureus strain MP-12) of no less than 32 µg/mL.

Work on `CC[C@H]1OC(=O)C(C)C(=O)[C@H](C)[C@@H](OC2OC(CNCC(C)(C)O)CC(N(C)C)C2O)[C@](C)(OC)C[C@@H](C)CN[C@H](C)[C@H]2NC(=O)O[C@@]21C` (stereo partly shown) [Compound 113, 3-Descladinosyl-3-oxo-6-O-methyl-N9a-desmethyl-11,12-dideoxy-12,11-(oxycarbonylimino)-6′-(2-methylpropan-2-ol-amino) Azithromycin] yielded an MIC (E. coli strain MP-4) of 8 to 32 µg/mL (≈ 11.4 to 45.7 µM), an MIC [1] of no less than 32 µg/mL and an MIC [2] of no less than 32 µg/mL. For the same molecule, the MIC [3] was no less than 32 µg/mL and the MIC (S. aureus strain MP-12) was no less than 32 µg/mL.

For `CC[C@H]1OC(=O)C(C)C(=O)[C@H](C)[C@@H](O[C@@H]2OC(CNc3ccccc3F)CC(N(C)C)C2O)[C@](C)(OC)C[C@@H](C)CN[C@H](C)[C@H]2NC(=O)O[C@@]21C` (stereo partly shown) [Compound 47], the MIC (E. coli strain MP-4) was no more than 4 µg/mL, the MIC [1] was 8 to 32 µg/mL (≈ 11.1 to 44.3 µM) and the MIC [2] was no less than 32 µg/mL. For the same molecule, the MIC [3] was no less than 32 µg/mL and the MIC (S. aureus strain MP-12) was 8 to 32 µg/mL (≈ 11.1 to 44.3 µM).
